For 8 molecules, MIC results are on record in US7332476B2, “Pyridyl substituted ketolide antibiotics” (Novartis AG, priority 2003, dated 2008).

Holding throughout (assay): MIC, broth microdilution (NCCLS)
The test system of test [1] is Streptococcus pneumoniae Stpn_297-749. The class given is cell-based. To be noted: Table 5, Strain ID F (Table 4): S. pneumoniae Stpn_297-749 Pen R. A digest of the protocol:
(§1)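 NCCLS broth microdilution with 2-fold serial drug dilutions (methanol stocks diluted in water); inoculum 3×10^5–7×10^5 CFU/ml in CAMHB, with 2-5% lysed horse blood for S. pneumoniae. Incubation 18-24 h at 35° C., ambient air, except S. pneumoniae (5-10% CO2). MIC is lowest concentration preventing visible growth.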

Test [2] deals with Streptococcus pneumoniae Stpn_49619. The class given is cell-based. To be noted: Table 5, Strain ID E (Table 4): S. pneumoniae Stpn_49619. A digest of the protocol:
as §1

Test [3] has as its system Streptococcus pyogenes Stpy_8668. The class given is cell-based. To be noted: Table 5, Strain ID D (Table 4): S. pyogenes Stpy_8668. A digest of the protocol: as §1
The subject of test [4] is Streptococcus pneumoniae Stpn_280-962. The format is cell-based. To be noted: Table 5, Strain ID G (Table 4): S. pneumoniae Stpn_280-962 Pen S. A digest of the protocol:
as §1

Test [5] relates to Staphylococcus epidermidis Step_f50654. The class given is cell-based. The conditions noted are these: Table 5, Strain ID B (Table 4): S. epidermidis Step_f50654 Pen S; in µg/mL (unit assumed). An outline of the steps:
as §1

For test [6], the system named is Streptococcus pneumoniae Stpn_Mef S 3427. The format is cell-based. The conditions noted are these: Table 5, Strain ID K (Table 4): S. pneumoniae Stpn_Mef S 3427. A digest of the protocol: as §1
The test system of test [7] is Streptococcus pneumoniae Stpn_Erm S 4297. The class given is cell-based. The conditions noted are these: Table 5, Strain ID I (Table 4): S. pneumoniae Stpn_Erm S 4297. An outline of the steps: as §1
Test [8] relates to Haemophilus influenzae Hain_49247. The class given is cell-based. The conditions noted are these: Table 5, Strain ID L (Table 4): H. influenzae Hain_49247; unit assumed.
For test [9], the system named is Staphylococcus epidermidis Step_14990. The format is cell-based. To be noted: Table 5, Strain ID A (Table 4): S. epidermidis Step_14990; in µg/mL (unit assumed). An outline of the steps: as §1
For test [10], the system named is Enterococcus faecalis Enfa_29212. The format is cell-based. To be noted: Table 5, Strain ID C (Table 4): E. faecalis Enfa_29212. An outline of the steps: as §1
The subject of test [11] is S. pneumoniae Stpn_Erm 6849. The class given is cell-based, Streptococcus pneumoniae. To be noted: Table 5, Strain ID H (Table 4): S. pneumoniae Stpn_Erm 6849; unit assumed. An outline of the steps: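 S. pneumoniae MIC by NCCLS broth microdilution in cation-adjusted Mueller-Hinton broth with 2-5% lysed horse blood, inoculum 3×10^5–7×10^5 CFU/ml, 2-fold drug dilutions. Incubated 18-24 hours at 35° C. in 5-10% CO2; MIC is lowest concentration preventing visible growth.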

The subject of test [12] is Streptococcus pneumoniae Stpn_Mef 5654. The format is cell-based. The conditions noted are these: Table 5, Strain ID J (Table 4): S. pneumoniae Stpn_Mef 5654; in µg/mL (unit assumed). An outline of the steps:
as §1

The subject of test [13] is E. coli Esco_25922. The class given is cell-based. The conditions noted are these: Table 5, Strain ID M (Table 4): E. coli Esco_25922; unit assumed. Here is the method: Strains. The bacterial isolates listed in Table 4 were cultivated from −70° C. frozen stocks by two consecutive overnight passages (P1, P2) at 35° C. on 5% blood agar (Remel, Lenexa, Kans.). Chocolate agar (Remel) is used for Haemophilus influenzae. H. influenzae and Streptococcus pneumoniae are incubated in 5-10% CO2
Drug Stock Preparation. To determine the amount of solvent to be used to give the desired final concentration, the formula “weight obtained in mg/final concentration in mg/ml” will be used. It will give the amount of solvent in ml needed to be added to give the desired concentration. For example, if 2.5 mg/ml is the desired concentration and the weight of compound is 13.7 mg, then the amount of solvent to be added is […]. Methanol is used as the solvent to dissolve the test compounds. Further dilution of stock is done in sterile, deionized water. Drug stocks are kept frozen at −70° C., protected from light.
Susceptibility Testing. MICs are determined by the broth microdilution method in accordance with the NCCLS guidelines. In brief, organism suspensions are adjusted to a 0.5 McFarland standard to yield a final inoculum between 3×10^5 and 7×10^5 CFU/ml. Drug dilutions and inocula are made in sterile, cation adjusted Mueller-Hinton Broth (CAMHB) (Remel) for all but S. pneumoniae [CAMHB with 2-5% lysed horse blood (Remel)] and H. influenzae [Haemophilus Test Medium (Remel)]. An inoculum volume of 100 μl is added to wells containing 100 μl of broth with 2-fold serial dilutions of drug. All inoculated microdilution trays are incubated in ambient air at 35° C. for 18-24 hours, except for S. pneumoniae, and H. influenzae (both at 5-10% CO2).
Following appropriate incubation, the MIC is determined and the MIC is defined as the lowest concentration of the drug that prevented visible growth.

≈ marks a conversion by molar mass, not a printed value.

On to `CC[C@H]1OC(=O)[C@H](C)C(=O)[C@H](C)[C@@H](OC2O[C@H](C)C[C@H](N(C)C)[C@H]2O)[C@@](C)(OC)C[C@@H](C)C(=O)[C@H](C)[C@@H]2[C@@H]1OC(=O)N2CCCCc1ccc2ccccc2n1` (some centres unmarked) [Compound 5960], for which the MIC result in test [1] is “=0.05”; in test [2], “=0.05”; in test [3], “=0.05”; in test [4], “=0.05”; in test [5], 0.2; in test [6], “=0.05”. Moreover, the MIC was 0.1 µg/mL (≈ 0.128 µM) in [7] (unit assumed); 3.13 µg/mL (≈ 4 µM) in test [8]; 0.2 in test [9]; “=0.05” in test [10]; 25 µg/mL (≈ 32 µM) in [11]; 0.2 in test [12]. In test [13], this molecule gave an MIC of 25 µg/mL (≈ 32 µM).

As to `CC[C@H]1OC(=O)[C@H](C)C(=O)[C@H](C)[C@@H](OC2O[C@H](C)C[C@H](N(C)C)[C@H]2O)[C@@](C)(OC)C[C@@H](C)C(=O)[C@H](C)[C@@H]2[C@@H]1OC(=O)N2CCCCc1ccnc2ccccc12` (some centres unmarked) [Compound 6220], the MIC entry in test [1] is on record as “=0.05”; in test [2], “=0.05”; in test [3], “=0.05”; in test [4], “=0.05”; in test [5], 0.1; in test [6], “=0.5”. In addition, the MIC in test [7] (unit assumed) is 0.1 µg/mL (≈ 0.128 µM); in test [8], 1.56 µg/mL (≈ 1.99 µM); in test [9], 0.1; in test [10], “=0.05”; in [11], 3.13 µg/mL (≈ 4 µM); in test [12], 0.4. In addition, the MIC in test [13] was found to be 6.25 µg/mL (≈ 7.99 µM).

On to `CC[C@H]1OC(=O)[C@H](C)C(=O)[C@H](C)[C@@H](OC2O[C@H](C)C[C@H](N(C)C)[C@H]2O)[C@@](C)(OC)C[C@@H](C)C(=O)[C@H](C)[C@@H]2[C@@H]1OC(=O)N2CCCCn1cnc(-c2ccccc2)c1` (some centres unmarked) [Compound 6221], for which the MIC result in [1] was “=0.05”; in [2] it was “=0.05”; in test [3], “=0.05”; in test [4], “=0.05”; in test [5], 0.1; in test [6], “=0.05”. For the same molecule, the MIC result was “=0.05” in test [7]; 3.13 µg/mL (≈ 3.93 µM) in [8]; 0.1 in test [9]; “=0.05” in [10]; 0.1 µg/mL (≈ 0.125 µM) in test [11]; 0.4 in test [12]. Also, the MIC in test [13] was found to be 25 µg/mL (≈ 31.4 µM).

In the case of `CC[C@H]1OC(=O)[C@H](C)C(=O)[C@H](C)[C@@H](OC2O[C@H](C)C[C@H](N(C)C)[C@H]2O)[C@@](C)(OC)C[C@@H](C)C2=NCCN3C(=O)O[C@H]1[C@H]3[C@H]2C` (some centres unmarked) [Compound 6222], the MIC in [1] (unit assumed) was found to be 0.4 µg/mL (≈ 0.641 µM); in test [2] (unit assumed) it was 0.2 µg/mL (≈ 0.321 µM); in test [3] (unit assumed) it was 0.2 µg/mL (≈ 0.321 µM); in test [4] (unit assumed) it was 0.2 µg/mL (≈ 0.321 µM); in [5], 1.56; in [6] (in µg/mL (unit assumed)), 0.4. In addition, the MIC in test [7] (unit assumed) is over 50 µg/mL; in [8], 25 µg/mL (≈ 40.1 µM); in test [9], 1.56; in test [10] (in µg/mL (unit assumed)), 0.4; in test [11] it was over 50 µg/mL; in test [12] it was 0.78. For the same molecule, the MIC in test [13] was 50 µg/mL (≈ 80.2 µM).

In the case of `CC[C@H]1OC(=O)[C@H](C)C(=O)[C@H](C)[C@@H](OC2O[C@H](C)C[C@H](N(C)C)[C@H]2O)[C@@](C)(OC)C[C@@H](C)C2=N[C@@H](C)CN3C(=O)O[C@H]1[C@H]3[C@H]2C` (some centres unmarked) [Compound 6223], the MIC was found to be 0.2 µg/mL (≈ 0.314 µM) in [1] (unit assumed); 0.2 µg/mL (≈ 0.314 µM) in test [2] (unit assumed); 0.2 µg/mL (≈ 0.314 µM) in test [3] (unit assumed); 0.2 µg/mL (≈ 0.314 µM) in test [4] (unit assumed); 3.13 in test [5]; 0.4 in test [6] (in µg/mL (unit assumed)). For the same molecule, the MIC in test [7] (unit assumed) was over 50 µg/mL; in test [8], over 50 µg/mL; in test [9] it was 1.56; in [10] (in µg/mL (unit assumed)), 0.78; in [11], over 50 µg/mL; in [12] it was 0.78. In test [13], this molecule displayed an MIC of 50 µg/mL (≈ 78.4 µM).

As for `CC[C@H]1OC(=O)[C@H](C)C(=O)[C@H](C)[C@@H](OC2O[C@H](C)C[C@H](N(C)C)[C@H]2O)[C@@](C)(OC)C[C@@H](C)C(=O)[C@H](C)[C@H]2N(CCCCn3cnc(-c4cccnc4)c3)C(=O)O[C@]12CC` (some centres unmarked) [Compound 7280], the MIC result in [1] is “=0.05”; in test [2], “=0.05”; in test [3], “=0.05”; in test [4] it was “=0.05”; in test [5], 0.2; in test [6] (in µg/mL (unit assumed)) it was 0.1. Moreover, the MIC entry in [7] was “=0.05”; in [8] it was 6.25 µg/mL (≈ 7.57 µM); in test [9], 0.2; in [10] (in µg/mL (unit assumed)), 0.1; in test [11], 0.4 µg/mL (≈ 0.484 µM); in test [12], 0.4. Besides, in test [13], the MIC is 25 µg/mL (≈ 30.3 µM).

On to `CC[C@H]1OC(=O)[C@H](C)C(=O)[C@H](C)[C@@H](OC2O[C@H](C)C[C@H](N(C)C)[C@H]2O)[C@@](C)(OC)C[C@@H](C)C(=O)[C@H](C)[C@H]2N(CCCCn3cnc(-c4ccccc4)c3)C(=O)O[C@]12CC` (some centres unmarked) [Compound 7281], for which the MIC result was “=0.05” in [1]; “=0.05” in test [2]; “=0.05” in [3]; “=0.05” in test [4]; 0.1 in test [5]; “=0.05” in [6]. The MIC entry in test [7] is “=0.05”; in test [8] it was 3.13 µg/mL (≈ 3.79 µM); in [9], 0.2; in test [10] (in µg/mL (unit assumed)), 0.1; in test [11], 0.2 µg/mL (≈ 0.242 µM); in test [12] it was 0.4. In test [13], this molecule registered an MIC of 25 µg/mL (≈ 30.3 µM).

For `CC[C@H]1OC(=O)[C@H](C)C(=O)[C@H](C)[C@@H](OC2O[C@H](C)C[C@H](N(C)C)[C@H]2O)[C@@](C)(OC)C[C@@H](C)C(=O)[C@H](C)[C@H]2N(CCCCn3cnc4ccccc43)C(=O)O[C@]12CC` (some centres unmarked) [Compound 7282], the MIC entry is listed as “=0.05” in [1]; “=0.05” in [2]; “=0.05” in [3]; “=0.05” in test [4]; 0.2 in test [5]; 0.1 in [6] (in µg/mL (unit assumed)). The MIC came out at 0.2 µg/mL (≈ 0.25 µM) in [7] (unit assumed); 3.13 µg/mL (≈ 3.92 µM) in test [8]; 0.4 in [9]; 0.1 in test [10] (in µg/mL (unit assumed)); 0.78 µg/mL (≈ 0.976 µM) in test [11]; 0.4 in test [12]. In addition, the MIC in test [13] stood at 12.5 µg/mL (≈ 15.6 µM).
